A short description of data set [1]: Mouse brain PK of VSRRR (CNS penetration) by LC/MS. Type of data set: in vivo. As to conditions: for Brain Pilot, Ratio to Heavy / Brain Pilot, fmol/mg (tissue) / Brain Pilot, pg/mg (tissue): individual mouse brains, single-point internal standard quantitation; for Single-Dosed Brain PK, fmol analyte/mg tissue / Single-Dosed Brain PK, pg/mg of tissue: single dose 0.8 mg/kg, average of 5 animals. How it is done: Mouse Brain PK on Therapeutic Peptide, VSRRR—Sample Preparation Procedure
Mice brains were weighed in a 1.5 mL Eppendorf tube. The entire brain was transferred to a 14 mL culture tube. 1 mL of 8 M urea in 50 mM ammonium formate (pH 10) with 2.5 pmol/mL SIL peptide per 100 mg wet tissue weight was added. For standard controls and QCs, 10 μL of peptide standard per every 100 mg of brain tissue (1%) was added with 990 μL of the aforementioned buffer to bring to a 1 mL total volume for every 100 mg of tissue. A tissue tearor was used on each sample for about 20 sec. 1.5 mL of the sample was transferred to a 2-mL Eppendorf tube. Each sample was probe sonicated for 3 bursts of 5 sec per burst. The sample was then heated at 37° C. for 30 min. The sample was centrifuged for 30 min at 15,000 rpm. Very little precipitate was visible at the bottom of each tube and avoided when pipetting 1 mL of the sample (out of 1.5 mL total volume) and placing directly onto an OASIS® plate. Salts and proteins were removed using the OASIS® HLB Solid Phase Extraction (SPE) protocol described above for the plasma sample. After the extraction, the samples were dried down in a Speed Vac and reconstitute in 25 μL of 1% ACN/0.1% TFA/0.02% HFBA. 3 μL of the sample was injected into a SYNAPT™ G2 HDMS™ (Waters Corp.) using Full Scan MS method, with a run time of 16.5 min total. Peptide(s) of interest were monitored between 3-8 min.
Table 5 and FIG. 10 show the average amount of peptide in the CNS sample from 5 animals over time after a single dosing of 0.8 mg/kg of the peptide.
The analyte concentrations were calculated from a single-point internal standard quantitation. […] The analyte concentrations were calculated from a 7-point standard curve calibration curve equation generated with samples between 1.4 pg analyte/mg tissue and 89.2 pg/mg (2× serial dilutions). The inter-animal reproducibility for the brain analyses is high ([…] 21% CV). The drug molecule in the single-dosed brain Cmax is about 9 pg analyte/mg tissue.

Data set [2] relates to mice with traumatic brain injury. As to the kind of experiment: Rotorod vestibulomotor function after traumatic brain injury. Type of data set: in vivo, mouse. As to conditions: 0.05 mg/kg iv at 2 h and 6 h after traumatic brain injury. How it is done:
An experimental murine model for traumatic brain injury was developed. Laskowitz, et al. (2010) J. Neurotrauma, 27:1983-95. Male mice (age 12-14 weeks) were anesthetized with 4.3% isoflurane in oxygen in an anesthesia induction box for 90 seconds. The trachea was intubated and the lungs mechanically ventilated with 1.4% isoflurane in a 50/50 mixture of oxygen and nitrogen. Body temperature was maintained at 37° C. using surface heating/cooling. The top of the skull was exposed by a midline incision to identify anatomical landmarks, and a concave 3-mm metallic disc was secured to the skull surface with an adhesive, directly midline and just caudal to the bregma. The disc diffused the energy of impact and reduced the incidence of depressed skull fracture to less than 10%. After general anesthesia, mice were positioned in a stereotactic device and the skull was exposed. A pneumatic impactor (diameter: 2.0 mm; available from Air-Power, Inc.) discharged at 6.8±0.2 m/s with a head displacement of 3 mm was used to deliver a single midline impact to the disc surface.
An experimental procedure for measuring neurological deficits was developed. An automated rotorod (available from Ugo Basile North America, Inc.) was used to assess vestibulomotor function. On the day before experimental induction of a neurological condition or injury (such as, for example, traumatic brain injury or intracerebral hemorrhage as described above), mice under went two consecutive conditioning trials at a set rotational speed (16 revolutions per minute) for 60 seconds followed by three additional trials with an accelerating rotational speed. The average time to fall from the rotating cylinder in the latter three trials was recorded as baseline latency. After injury, mice under went consecutive daily testing with three trials of accelerating rotational speed (intertribal interval of 15 minutes). Average latency to fall from the rod was recorded, and mice unable to grip the rod were scored with a latency of 0 seconds.
Groups of mice received either an ApoE mimetic peptide (SEQ ID NO:3; 0.05 mg/kg or 0.2 mg/kg) or carrier (saline) by intravenous tail vein injection at 2 hours and again at 6 hours after traumatic brain injury induced as described in Example 3. Each mouse was tested for vestibulomotor function by rotorod latency measured before and after injury, as described in Example 3.
Groups of mice received either an ApoE mimetic peptide (SEQ ID NO:4; 0.05 mg/kg) or carrier (saline) by intravenous tail vein injection at 2 hours and again at 6 hours after traumatic brain injury induced as described in Example 3. Each mouse was tested for vestibulomotor function by rotorod latency measured before and after injury, as described in Example 3. […]
A general note: Falling from the rotarod earlier than controls is read as motor impairment.

These results are taken from patent US12071469B2, “Peptide compounds for suppressing inflammation” (Duke University, priority 2011, dated 2024).

“And” between values parts separate entries of the source, which are not always exact repeats. Equal entries are not always repeated.

Turning to Ac-VSRRR-NH2 [VR-55, Ac-VSRRR-NH2], the “Brain Pilot, Ratio to Heavy” value is 0.245 and 0.371 in data set [1] (3 min); 0.157 and 0.435 in data set [1] (10 min). Also, the “Brain Pilot, fmol/mg (tissue)” value in data set [1] (3 min) is 15 fmol/mg (tissue) and 23 fmol/mg (tissue); in data set [1] (10 min), 10 fmol/mg (tissue) and 27 fmol/mg (tissue). The “Brain Pilot, pg/mg (tissue)” value in data set [1] (3 min) is 11 pg/mg (tissue) and 17 pg/mg (tissue); in data set [1] (10 min), 7 pg/mg (tissue) and 19 pg/mg (tissue). In addition, in data set [1] (mouse brain, single dose), the “single-dosed brain Cmax” value is “about 9 pg analyte/mg tissue”. In addition, the “Single-Dosed Brain PK, fmol analyte/mg tissue” value in data set [1] (mouse brain, 1 min) came out at 10.91 fmol analyte/mg tissue; in data set [1] (mouse brain, 3 min) it was 12.30 fmol analyte/mg tissue; in data set [1] (mouse brain, 5 min), 11.26 fmol analyte/mg tissue; in data set [1] (mouse brain, 10 min), 11.83 fmol analyte/mg tissue; in data set [1] (mouse brain, 15 min), 10.56 fmol analyte/mg tissue; in data set [1] (mouse brain, 30 min), 8.87 fmol analyte/mg tissue. Also, in data set [1] (mouse brain, 60 min), the “Single-Dosed Brain PK, fmol analyte/mg tissue” value stood at 7.64 fmol analyte/mg tissue. Also, the “Single-Dosed Brain PK, pg/mg of tissue” value in data set [1] (mouse brain, 1 min) was 7.79 pg/mg of tissue; in data set [1] (mouse brain, 3 min) it was 8.79 pg/mg of tissue; in data set [1] (mouse brain, 5 min) it was 8.04 pg/mg of tissue; in data set [1] (mouse brain, 10 min), 8.44 pg/mg of tissue; in data set [1] (mouse brain, 15 min) it was 7.54 pg/mg of tissue; in data set [1] (mouse brain, 30 min), 6.33 pg/mg of tissue. Moreover, in data set [1] (mouse brain, 60 min), the “Single-Dosed Brain PK, pg/mg of tissue” value is 5.46 pg/mg of tissue. The CNS penetration entry in data set [1] (preliminary data, brain pilot) was “CNS penetration”. Further, in data set [2], the “durability of effect on rotorod latency” value is reported as “durable through the five-day testing period”. For the same substance, the “vestibulomotor performance (rotorod latency) compared to carrier” value in data set [2] (FIG. 3) is “improved vestibulomotor performance”.
